From US6420129B1, “Reagent composition for determination of electrolytes” (Toyo Boseki Kabushiki Kaisha, priority 1998, dated 2002)

Tests used:
[1] = target: T1, Inactive α-amylase (from swine pancreas) (Sus scrofa, UniProt P00690); test: Residual activity of α-amylase in test enzyme solutions after storage; assay type: biochemical; conditions: after storage at 35° C. for 7 days
T1 construct: α-amylase derived from the swine pancreas; from tissue; host or cells: swine pancreas
T1 sequence (P00690 16-511): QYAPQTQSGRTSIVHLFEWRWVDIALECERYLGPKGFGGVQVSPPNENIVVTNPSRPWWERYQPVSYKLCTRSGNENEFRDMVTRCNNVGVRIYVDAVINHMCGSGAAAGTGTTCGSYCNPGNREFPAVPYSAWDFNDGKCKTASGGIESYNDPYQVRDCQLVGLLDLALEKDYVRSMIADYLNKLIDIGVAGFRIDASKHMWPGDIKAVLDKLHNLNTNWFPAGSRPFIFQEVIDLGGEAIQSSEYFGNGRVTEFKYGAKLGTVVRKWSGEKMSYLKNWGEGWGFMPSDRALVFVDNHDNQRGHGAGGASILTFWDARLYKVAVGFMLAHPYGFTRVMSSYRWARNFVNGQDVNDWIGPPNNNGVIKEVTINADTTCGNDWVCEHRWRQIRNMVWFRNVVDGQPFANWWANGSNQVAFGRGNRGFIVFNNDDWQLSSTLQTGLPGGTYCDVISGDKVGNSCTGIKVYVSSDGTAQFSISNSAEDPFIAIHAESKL
Procedure: [table] In the test enzyme solutions of the reagents for the determination of calcium with the reagent formulations as described above in Example 1, glucosyl-α-cyclodextrin, maltosyl-α-cyclodextrin, glucosyl-β-cyclodextrin, or maltosyl-β-cyclodextrin was independently added as a cyclodextrin derivative at 12 mM. […] Instead of the cyclodextrin derivatives and the SH group containing compounds in the reagent formulations as described above in Example 1, glucose (100 mM), maltose (50 mM), maltotriose (30 mM), α-cyclodextrin (1.5 mM), β-cyclodextrin (1.5 mM), γ-cyclodextrin (1.5 mM), N-acetylcysteine (20 mM), or reduced glutathione (20 mM) was independently added to have the respective concentrations as shown in Table 3.

[2] = target: T1, Inactive α-amylase (from swine pancreas); test: Relative sensitivity in determination of calcium with 10 mg/dl calcium standard solution; assay type: biochemical; conditions: just after the preparation, 10 mg/dl calcium standard
Procedure: [table] In the test enzyme solutions of the reagents for the determination of calcium with the reagent formulations as described above in Example 1, glucosyl-α-cyclodextrin, maltosyl-α-cyclodextrin, glucosyl-β-cyclodextrin, or maltosyl-β-cyclodextrin was independently added as a cyclodextrin derivative at 0, 1.5, 3, 6, or 12 mM. To the test enzyme solutions containing 3 mM glucosyl-β-cyclodextrin was further added independently N-acetylcysteine or reduced glutathione at 2.5, 5, 10, or 20 mM, and the determination of calcium ions with a calcium standard solution was carried out as described below. According to the method as described below, the determination of the amount of calcium was carried out for test solutions just after the preparation with 10 mg/dl calcium standard solution as a sample, and the relative sensitivity (%) was determined under the respective reagent conditions when the sensitivity in the case of no addition of cyclodextrin derivatives was taken as 100%. B. Method for the Determination of the Amount of Calcium To 5.8 μl of a sample was added 180 μl of a test enzyme solution, and the mixture was pre-warmed for 5 minutes, to which 90 μl of a test substrate solution was further added to make the reaction start. […] The measuring apparatus used was HITACHI Automatic Analyzer model 7170. The measurement wavelength was 405 nm for the principal wavelength and 546 nm for the second wavelength. The measurement was carried out at 37° C. […] The test solutions thus prepared were used for the determination of the calcium standard solution in the same manner as described in Example 3.

[3] = Visual observation of test solutions for deposition of crystals or white turbidity; assay type: physicochemical; design: key to turbidity (visual observation): +: turbidity found; −: no turbidity
Procedure: Among the reagents for the determination of calcium with the reagent formulations as described below, test enzyme solutions were prepared by the addition of glucosyl-α-cyclodextrin (G1αCD), maltosyl-α-cyclodextrin (G2αCD), glucosyl-p-cyclodextrin (G1βCD), or maltosyl-β-cyclodextrin(G2βCD) as a cyclodextrin derivative to have a concentration of 0, 1.5, 3, 6, or 12 mM. To the test enzyme solutions containing 3 mM glucosyl-β-cyclodextrin was further added independently N-acetylcysteine or reduced glutathione to have a concentration of 2.5, 5, 10, or 20 mM.
Both kinds of test solutions prepared by the above procedures were stored at 4° C. for 3 months. Visual observation of the test solutions was carried out just after the preparation and after the storage to examine whether there was found the deposition of crystals or the presence of white turbidity. The results are shown in table 1 for the visual observation just after the preparation and in Table 2 for the visual observation after the storage.
The test solutions were prepared in the same manner as described in Example 1, except that α-cyclodextrin (αCD) (1.5, 3, 6, or 12 mM), β-cyclodextrin (βCD) (1.5, 3, 6, or 12 mM), or γ-cyclodextrin (γCD) (1.5, 3, 6, or 12 mM) was independently added instead of the cyclodextrin derivatives and the SH group containing compounds in the above reagent formulations to have the respective concentrations as shown in Table 1. Both kinds of test solutions were stored at 4° C. for 3 months. Visual observation of the test solutions was carried out just after the preparation and after the storage to examine whether there was found the deposition of crystals or the presence of white turbidity. The results are shown in Table 1 for the visual observation just after the preparation and in Table 2 for the visual observation after the storage.

[4] = target: T1, Inactive α-amylase (from swine pancreas); test: Calcium linearity of test solutions just after preparation and after storage; assay type: biochemical; conditions: after the storage at 35° C. for 7 days
Procedure: To 5.8 μl of a sample was added 180 μl of a test enzyme solution, and the mixture was pre-warmed for 5 minutes, to which 90 μl of a test substrate solution was further added to make the reaction start. The change of absorbance per minute for 3 minutes was measured starting at the time when 2 minutes passed after the addition of the test substrate solution, and the amount of calcium in the sample was determined according to the two-point calibration curves for purified water and 10 mg/dl calcium standard solution.
The measuring apparatus used was HITACHI Automatic Analyzer model 7170. The measurement wavelength was 405 nm for the principal wavelength and 546 nm for the second wavelength. The measurement was carried out at 37° C.
[…] […] According to the method for the determination of the amount of calcium as described in Example 3, Sec. B, the calcium linearity was determined for test solutions just after the preparation and after the storage at 35° C. for 7 days with serial 10-fold dilutions of a 50 mg/dl aqueous calcium solution as samples.
Instead of the cyclodextrin derivatives and the SN-group containing compounds in the reagent formulations as described above in Example 1, β-cyclodextrin was added at 1.5 mM. The test solutions thus prepared were stored at 35° C. for 7 days and the calcium linearity was determined in the same manner as described in Example 3.

[5] = after storage at 4° C. for 3 months, agent added 1.5 mM
[6] = after storage at 4° C. for 3 months, agent added 3 mM
[7] = after storage at 4° C. for 3 months, agent added 6 mM
[8] = after storage at 4° C. for 3 months, agent added 12 mM
[9] = just after the preparation, agent added 1.5 mM
[10] = just after the preparation, agent added 3 mM
[11] = just after the preparation, agent added 6 mM
[12] = just after the preparation, agent added 12 mM

| Residual activity (%) ([1]; agent 12 mM) | Relative sensitivity (%) when sensitivity in case of no addition is taken as 100% ([2]; agent 1.5 mM) [%] | Relative sensitivity (%) when sensitivity in case of no addition is taken as 100% ([2]; agent 3 mM) [%] | Relative sensitivity (%) when sensitivity in case of no addition is taken as 100% ([2]; agent 6 mM) [%] | Relative sensitivity (%) when sensitivity in case of no addition is taken as 100% ([2]; agent 12 mM) [%] | turbidity (visual observation) [3, 5] | turbidity (visual observation) [3, 6] | turbidity (visual observation) [3, 7] | turbidity (visual observation) [3, 8] | turbidity (visual observation) [3, 9] | turbidity (visual observation) [3, 10] | turbidity (visual observation) [3, 11] | turbidity (visual observation) [3, 12] | Residual activity (%) ([1]; agent 1.5 mM) | turbidity of test enzyme solution (in words) ([3]; after the storage at 4° C. for 3 months, at 3 mM) | turbidity of test enzyme solution (in words) ([3]; just after the preparation, at 6 mM) | Compound | calcium linearity / quantitative reliability (in words) ([4]; agent 12 mM) | calcium linearity / quantitative reliability (in words) ([4]; agent 1.5 mM) |
| --- | --- | --- | --- | --- | --- | --- | --- | --- | --- | --- | --- | --- | --- | --- | --- | --- | --- | --- |
| 91.7 | 120.7 | 128.6 | 133.2 | 122.5 | − | − | − | − | − | − | − | − |  |  |  | OCC1OC(OCC2OC3OC4C(CO)OC(OC5C(CO)OC(OC6C(CO)OC(OC7C(CO)OC(OC8C(CO)OC(OC9C(CO)OC(OC2C(O)C3O)C(O)C9O)C(O)C8O)C(O)C7O)C(O)C6O)C(O)C5O)C(O)C4O)C(O)C(O)C1O (stereo not drawn) [G1βCD, glucosyl-β-cyclodextrin] | the quantitative reliability was kept at high concentrations |  |
|  |  |  |  |  | − | − | + | + | − | − | + | + | 77.4 | became turbid | had already become turbid | OC[C@H]1O[C@@H]2O[C@H]3[C@H](O)[C@@H](O)[C@@H](O[C@H]4[C@H](O)[C@@H](O)[C@@H](O[C@H]5[C@H](O)[C@@H](O)[C@@H](O[C@H]6[C@H](O)[C@@H](O)[C@@H](O[C@H]7[C@H](O)[C@@H](O)[C@@H](O[C@H]8[C@H](O)[C@@H](O)[C@@H](O[C@H]1[C@H](O)[C@H]2O)O[C@@H]8CO)O[C@@H]7CO)O[C@@H]6CO)O[C@@H]5CO)O[C@@H]4CO)O[C@@H]3CO [βCD, β-cyclodextrin, reference compound] |  | became deviated upward, and the quantitative reliability was decreased at high concentrations |
